{
  "source": "patent US20250221960A1",
  "about": "“COMPOSITIONS AND METHODS FOR THE TREATMENT OF DEPRESSION” (Janssen Pharmaceuticals, Inc., priority 2022, published 2025)",
  "test_system": "subjects with MDD",
  "test": "MADRS total score, adjunctive aticaprant vs placebo (Example 1)",
  "conditions": "for MADRS Total Score Change from Baseline LSMean (SE), MMRM / MADRS Total Score LSMean Difference (SE) Treatment - Placebo, MMRM / MADRS Total Score Effect Size vs placebo / MADRS Total Score Mean Change from Baseline (SD): 10 mg",
  "key": {"[1]": {"conditions": "High anhedonia, Treatment Week 1, fITT"}, "[2]": {"conditions": "High anhedonia, Treatment Week 3, fITT"}, "[3]": {"conditions": "High anhedonia, Treatment Week 4, fITT"}, "[4]": {"conditions": "High anhedonia, Treatment Week 5, fITT"}, "[5]": {"conditions": "High anhedonia, Treatment Week 6, fITT"}, "[6]": {"conditions": "Low anhedonia, Treatment Week 1, fITT"}, "[7]": {"conditions": "Low anhedonia, Treatment Week 3, fITT"}, "[8]": {"conditions": "Low anhedonia, Treatment Week 4, fITT"}, "[9]": {"conditions": "Low anhedonia, Treatment Week 5, fITT"}, "[10]": {"conditions": "Low anhedonia, Treatment Week 6, fITT"}},
  "data": [
    {"smiles": "Cc1cc(C)cc(C2CCCN2Cc2ccc(Oc3ccc(C(N)=O)cc3F)cc2)c1", "note": "(centres unmarked) [aticaprant, 3-fluoro-4-4-2-(3,5-dimethylphenyl) pyrrolidin-1-yl-methylphenoxybenzamide]", "values": [
      {"measurement": "MADRS Total Score: Mean Change from Baseline (SD)", "setting": "High anhedonia (SHAPS >=38 at treatment baseline), Treatment Week 1, fITT", "result": "−4.4 (5.04)"},
      {"measurement": "MADRS Total Score: Effect size", "setting": "[1]", "result": "−0.45"},
      {"measurement": "MADRS Total Score: Mean Change to Placebo (SD pooled)", "setting": "[1]", "result": "−2.0 (4.38)"},
      {"measurement": "MADRS Total Score: Effect size", "setting": "[2]", "result": "−0.54"},
      {"measurement": "MADRS Total Score: Mean Change from Baseline (SD)", "setting": "[2]", "result": "−6.9 (6.66)"},
      {"measurement": "MADRS Total Score: Mean Change to Placebo (SD pooled)", "setting": "[2]", "result": "−3.8 (6.94)"},
      {"measurement": "MADRS Total Score: Effect size", "setting": "[3]", "result": "−0.50"},
      {"measurement": "MADRS Total Score: Mean Change from Baseline (SD)", "setting": "[3]", "result": "−8.6 (7.32)"},
      {"measurement": "MADRS Total Score: Mean Change to Placebo (SD pooled)", "setting": "[3]", "result": "−3.8 (7.56)"},
      {"measurement": "MADRS Total Score: Effect size", "setting": "[4]", "result": "−0.51"},
      {"measurement": "MADRS Total Score: Mean Change from Baseline (SD)", "setting": "[4]", "result": "−10.2 (8.04)"},
      {"measurement": "MADRS Total Score: Mean Change to Placebo (SD pooled)", "setting": "[4]", "result": "−4.0 (7.87)"},
      {"measurement": "MADRS Total Score: Effect size", "setting": "[5]", "result": "−0.51"},
      {"measurement": "MADRS Total Score: Mean Change from Baseline (SD)", "setting": "[5]", "result": "−11.3 (8.69)"},
      {"measurement": "MADRS Total Score: Mean Change to Placebo (SD pooled)", "setting": "[5]", "result": "−4.6 (9.03)"},
      {"measurement": "MADRS Total Score: Mean Change from Baseline (SD)", "setting": "Low anhedonia (SHAPS >=20 and <38 at treatment baseline), Treatment Week 1, fITT", "result": "−2.4 (4.59)"},
      {"measurement": "MADRS Total Score: Effect size", "setting": "[6]", "result": "−0.24"},
      {"measurement": "MADRS Total Score: Mean Change to Placebo (SD pooled)", "setting": "[6]", "result": "−1.0 (4.39)"},
      {"measurement": "MADRS Total Score: Effect size", "setting": "[7]", "result": "−0.08"},
      {"measurement": "MADRS Total Score: Mean Change from Baseline (SD)", "setting": "[7]", "result": "−4.1 (6.67)"},
      {"measurement": "MADRS Total Score: Mean Change to Placebo (SD pooled)", "setting": "[7]", "result": "−0.5 (6.37)"},
      {"measurement": "MADRS Total Score: Effect size", "setting": "[8]", "result": "−0.23"},
      {"measurement": "MADRS Total Score: Mean Change from Baseline (SD)", "setting": "[8]", "result": "−6.4 (6.77)"},
      {"measurement": "MADRS Total Score: Mean Change to Placebo (SD pooled)", "setting": "[8]", "result": "−1.5 (6.65)"},
      {"measurement": "MADRS Total Score: Effect size", "setting": "[9]", "result": "−0.10"},
      {"measurement": "MADRS Total Score: Mean Change from Baseline (SD)", "setting": "[9]", "result": "−7.3 (6.90)"},
      {"measurement": "MADRS Total Score: Mean Change to Placebo (SD pooled)", "setting": "[9]", "result": "−0.7 (6.86)"},
      {"measurement": "MADRS Total Score: Effect size", "setting": "[10]", "result": "−0.29"},
      {"measurement": "MADRS Total Score: Mean Change from Baseline (SD)", "setting": "[10]", "result": "−8.8 (7.48)"},
      {"measurement": "MADRS Total Score: Mean Change to Placebo (SD pooled)", "setting": "[10]", "result": "−2.3 (7.80)"},
      {"measurement": "Change from Treatment Baseline in MADRS Total Score, Least Squares Mean Difference point estimate", "setting": "Treatment Week 6, both responders and non-responders during placebo lead-in, 10 mg vs placebo", "result": "−3.1", "unit": "score on a scale"},
      {"measurement": "MADRS LSMeans difference estimate, supplementary MMRM analysis (data prior to 15 Mar. 2020, COVID-19)", "setting": "eITT", "result": "−3.0"},
      {"measurement": "MADRS Total Score Mean Change to Placebo", "setting": "eITT, High anhedonia (baseline SHAPS >=38), Treatment Week 1", "result": "−1.8"},
      {"measurement": "MADRS Total Score Mean Change to Placebo", "setting": "eITT, High anhedonia (baseline SHAPS >=38), Treatment Week 3", "result": "−3.0"},
      {"measurement": "MADRS Total Score Mean Change to Placebo", "setting": "eITT, High anhedonia (baseline SHAPS >=38), Treatment Week 4", "result": "−2.2"},
      {"measurement": "MADRS Total Score Mean Change to Placebo", "setting": "eITT, High anhedonia (baseline SHAPS >=38), Treatment Week 5", "result": "−2.6"},
      {"measurement": "MADRS Total Score Mean Change to Placebo", "setting": "eITT, High anhedonia (baseline SHAPS >=38), Treatment Week 6", "result": "−3.4"},
      {"measurement": "MADRS Total Score Mean Change to Placebo", "setting": "eITT, Low anhedonia (baseline SHAPS >=20 and <38), Treatment Week 1", "result": "−0.5"},
      {"measurement": "MADRS Total Score Mean Change to Placebo", "setting": "eITT, Low anhedonia (baseline SHAPS >=20 and <38), Treatment Week 3", "result": "−0.1"},
      {"measurement": "MADRS Total Score Mean Change to Placebo", "setting": "eITT, Low anhedonia (baseline SHAPS >=20 and <38), Treatment Week 4", "result": 0.0},
      {"measurement": "MADRS Total Score Mean Change to Placebo", "setting": "eITT, Low anhedonia (baseline SHAPS >=20 and <38), Treatment Week 5", "result": 0.3},
      {"measurement": "MADRS Total Score Mean Change to Placebo", "setting": "eITT, Low anhedonia (baseline SHAPS >=20 and <38), Treatment Week 6", "result": "−0.9"},
      {"measurement": "MADRS Total Score Change from Baseline LSMean (SE), MMRM", "setting": "eITT, Treatment Week 1", "result": 3.2},
      {"measurement": "MADRS Total Score LSMean Difference (SE) Treatment - Placebo, MMRM", "setting": "eITT, Treatment Week 1", "result": "−1.2"},
      {"measurement": "MADRS Total Score Effect Size vs placebo", "setting": "eITT, Treatment Week 3", "result": "−0.22"},
      {"measurement": "MADRS Total Score LSMean Difference (SE) Treatment - Placebo, MMRM", "setting": "eITT, Treatment Week 3", "result": "−1.5"},
      {"measurement": "MADRS Total Score Effect Size vs placebo", "setting": "eITT, Treatment Week 4", "result": "−0.14"},
      {"measurement": "MADRS Total Score LSMean Difference (SE) Treatment - Placebo, MMRM", "setting": "eITT, Treatment Week 4", "result": "−1.1"},
      {"measurement": "MADRS Total Score Effect Size vs placebo", "setting": "eITT, Treatment Week 5", "result": "−0.14"},
      {"measurement": "MADRS Total Score LSMean Difference (SE) Treatment - Placebo, MMRM", "setting": "eITT, Treatment Week 5", "result": "−1.5"},
      {"measurement": "percentage of subjects with MADRS remission (MADRS total score≤10)", "setting": "eITT, Treatment Week 6", "result": 16.9, "unit": "%"},
      {"measurement": "MADRS Total Score LSMean Difference (SE) Treatment - Placebo, MMRM", "setting": "eITT, Treatment Week 6", "result": "−2.1"},
      {"measurement": "MADRS LSMeans difference estimate, supplementary MMRM analysis (data prior to 15 Mar. 2020, COVID-19)", "setting": "fITT", "result": "−3.4"},
      {"measurement": "onset of significant treatment effect (MADRS LS mean change from baseline)", "setting": "fITT, FIG. 7B", "result": 3, "unit": "week"},
      {"measurement": "MADRS Total Score LSMean Difference (SE) Treatment - Placebo, MMRM", "setting": "fITT, Treatment Week 1", "result": "−1.6"},
      {"measurement": "MADRS Total Score Mean Change from Baseline (SD)", "setting": "fITT, Treatment Week 1", "result": "−3.1"},
      {"measurement": "MADRS Total Score Change from Baseline LSMean (SE), MMRM", "setting": "fITT, Treatment Week 3", "result": "−5.2"},
      {"measurement": "MADRS Total Score Effect Size vs placebo", "setting": "fITT, Treatment Week 3", "result": "−0.26"},
      {"measurement": "MADRS Total Score LSMean Difference (SE) Treatment - Placebo, MMRM", "setting": "fITT, Treatment Week 3", "result": "−1.9"},
      {"measurement": "MADRS Total Score Mean Change from Baseline (SD)", "setting": "fITT, Treatment Week 3", "result": "−5.1"},
      {"measurement": "MADRS Total Score Effect Size vs placebo", "setting": "fITT, Treatment Week 4", "result": "−0.32"},
      {"measurement": "MADRS Total Score LSMean Difference (SE) Treatment - Placebo, MMRM", "setting": "fITT, Treatment Week 4", "result": "−2.5"},
      {"measurement": "MADRS Total Score Mean Change from Baseline (SD)", "setting": "fITT, Treatment Week 4", "result": "−7.2"},
      {"measurement": "MADRS Total Score Effect Size vs placebo", "setting": "fITT, Treatment Week 5", "result": "−0.26"},
      {"measurement": "MADRS Total Score LSMean Difference (SE) Treatment - Placebo, MMRM", "setting": "fITT, Treatment Week 5", "result": "−2.4"},
      {"measurement": "MADRS Total Score Mean Change from Baseline (SD)", "setting": "fITT, Treatment Week 5", "result": "−8.3"},
      {"measurement": "percentage of subjects with MADRS remission (MADRS total score≤10)", "setting": "fITT, Treatment Week 6", "result": 31.2, "unit": "%"},
      {"measurement": "MADRS Total Score Change from Baseline LSMean (SE), MMRM", "setting": "fITT, Treatment Week 6", "result": "−9.6"},
      {"measurement": "MADRS Total Score LSMean Difference (SE) Treatment - Placebo, MMRM", "setting": "fITT, Treatment Week 6", "result": "−3.1"},
      {"measurement": "MADRS total score difference between aticaprant and placebo", "setting": "fITT, low anhedonia level (n=94), Treatment Week 6", "result": "−2.3"},
      {"measurement": "LSMD (MADRS) in high anhedonia group relative to low anhedonia group", "setting": "week 6", "result": "more than double"}
    ]}
  ]
}
